Test results published in US10590129B2 (Incozen Therapeutics Pvt. Ltd., priority 2010, dated 2020).

Columns and labels:
[1] = system: MKN-45 cells; assay: Inhibition of MKN-45 proliferation (MTT); type: cell-based, human; conditions: for inhibition at 0.1 µM / inhibition at 1 µM / GI50: Homo sapiens, MKN-45, MKN-45 proliferation
How it was run: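 High-Met human gastric adenocarcinoma MKN-45 cells plated in complete growth medium, compounds added next day and viability read 3 days later by MTT dye reduction.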

Row | Structure (SMILES) | melting point [°C] | GI50 [1] [nM] | inhibition at 0.1 µM ([1]; 0.1 μM) [%] | Inhibition (% Inhibition of MKN-45 proliferation) ([1]; MKN-45 proliferation, 0.1 μM) | % inhibition @ 1 uM ([1]; MKN-45 proliferation, 1 μM) | inhibition at 1 µM ([1]; 1 μM) [%]
1 | CC(C)NC(=O)c1ccc(-c2ccc3nnn(Cc4ccc5ncccc5c4)c3n2)cc1 [Ex 116, N-Isopropyl-4-(3-(quinolin-6-ylmethyl)-3H-[1,2,3]triazolo[4,5-b]pyridin-5-yl)benzamide] | 181 to 183 |  | < 25 |  |  | 75 to 100
2 | CCNC(=O)Nc1ccc(-c2ccc3nnn(Cc4ccc5ncccc5c4)c3n2)cc1 [Ex 118, 1-Ethyl-3-(4-(3-(quinolin-6-ylmethyl)-3H-[1,2,3]triazolo[4,5-b]pyridin-5-yl)phenyl)urea] | 193 to 196 |  | < 25 |  |  | 75 to 100
3 | O=C(Nc1nc[nH]n1)c1ccc(-c2ccc3nnn(Cc4ccc5ncccc5c4)c3n2)cc1Cl [Ex 122, 2-chloro-4-(3-(quinolin-6-ylmethyl)-3H-[1,2,3]triazolo[4,5-b]pyridin-5-yl)-N-(1H-1,2,4-triazol-3-yl)benzamide] | 286 to 288 |  | < 25 |  |  | < 25
4 | c1cnc2ccc(Cn3cnc4ccc(-c5cn[nH]c5)nc43)cc2c1 [Ex 147, 6-((5-(1H-Pyrazol-4-yl)-3H-imidazo[4,5-b]pyridin-3-yl)methyl)quinoline] | 214 to 216 |  |  |  |  | < 25
5 | Cn1cc(-c2ccc3ncn(Cc4ccc5ncccc5c4)c3n2)cn1 [Ex 148, 6-((5-(1-Methyl-1H-pyrazol-4-yl)-3H-imidazo[4,5-b]pyridin-3-yl)methyl)quinoline] | 150 to 152 |  |  |  |  | < 25
6 | OCCn1cc(-c2ccc3ncn(Cc4ccc5ncccc5c4)c3n2)cn1 [Ex 150, 2-(4-(3-(Quinolin-6-ylmethyl)-3H-imidazo[4,5-b]pyridin-5-yl)-1H-pyrazol-1-yl)ethanol] | 160 to 163 |  |  |  |  | < 25
7 | OCCNc1ccc2nnn(Cc3ccc4ncccc4c3)c2n1 [Ex 151, 2-(3-(Quinolin-6-ylmethyl)-3H-[1,2,3]triazolo[4,5-b]pyridin-5-ylamino)ethanol] | 184 to 186 |  |  |  |  | 50 to 75
8 | c1cnc2ccc(Cn3nnc4ccc(-n5ccnc5)nc43)cc2c1 [Ex 152, 6-((5-(1H-Imidazol-1-yl)-3H-[1,2,3]triazolo[4,5-b]pyridin-3-yl)methyl)quinoline] | 227 to 230 | 150 to 500 |  |  |  | 
9 | c1cnc2ccc(Cn3nnc4ccc(-c5cnn(C6CCNCC6)c5)nc43)cc2c1 [Ex 157, 6-((5-(1-(Piperidin-4-yl)-1H-pyrazol-4-yl)-3H-[1,2,3]triazolo[4,5-b]pyridin-3-yl)methyl)quinoline] | 188 to 191 | < 1000 |  |  |  | 
10 | Cl.Fc1ccc(F)c(Cn2nnc3ccc(-c4cnn(C5CCNCC5)c4)nc32)c1Cl [Ex 167, 3-(2-Chloro-3,6-difluorobenzyl)-5-(1-(piperidin-4-yl)-1H-pyrazol-4-yl)-3H-[1,2,3]triazolo[4,5-b]pyridine hydrochloride] | 85 to 87 |  |  |  |  | 25 to 50
11 | Nc1ncc(-c2ccc3nnn(Cc4ccc5ncccc5c4)c3n2)cn1 [Ex 180, 5-(3-(Quinolin-6-ylmethyl)-3H-[1,2,3]triazolo[4,5-b]pyridin-5-yl)pyrimidin-2-amine] | 244 to 246 |  | < 25 |  |  | 25 to 50
12 | O=Cc1cc(-c2ccc3nnn(Cc4ccc5ncccc5c4)c3n2)cs1 [Ex 182, 4-(3-(Quinolin-6-ylmethyl)-3H-[1,2,3]triazolo[4,5-b]pyridin-5-yl)thiophene-2-carbaldehyde] | 195 to 197 |  | < 25 |  |  | 25 to 50
13 | COc1ncc(-c2ccc3nnn(Cc4ccc5ncccc5c4)c3n2)cn1 [Ex 183, 6-((5-(2-Methoxypyrimidin-5-yl)-3H-[1,2,3]triazolo[4,5-b]pyridin-3-yl)methyl)quinoline] | 201 to 203 |  | < 25 |  |  | 
14 | Nc1ccc(-c2ccc3nnn(Cc4ccc5ncccc5c4)c3n2)cn1 [Ex 186, 5-(3-(Quinolin-6-ylmethyl)-3H-[1,2,3]triazolo[4,5-b]pyridin-5-yl)pyridin-2-amine] | 194 to 197 |  | < 25 |  |  | < 25
15 | FCCn1cc(-c2ccc3nnn(Cc4ccc5ncccc5c4)c3n2)cn1 [Ex 187, 6-((5-(1-(2-fluoroethyl)-1H-pyrazol-4-yl)-3H-[1,2,3]triazolo[4,5-b]pyridin-3-yl)methyl)quinoline] | 168 to 170 | ≤ 50 | 75 to 100 |  |  | 
16 | OCc1cc(-c2ccc3nnn(Cc4ccc5ncccc5c4)c3n2)cs1 [Ex 188, (4-(3-(Quinolin-6-ylmethyl)-3H-[1,2,3]triazolo[4,5-b]pyridin-5-yl)thiophen-2-yl) methanol] | 188 to 191 | 50 to 150 | 75 to 100 |  |  | 
17 | CCc1n[nH]c2cc(-c3ccc4nnn(Cc5ccc6ncccc6c5)c4n3)ccc12 [Ex 191, 6-((5-(3-ethyl-1H-indazol-6-yl)-3H-[1,2,3]triazolo[4,5-b]pyridin-3-yl)methyl)quinoline] | 211 to 213 |  | 25 to 50 |  |  | 25 to 50
18 | Cc1csc(-c2ccc3nnn(Cc4ccc5ncccc5c4)c3n2)c1 [Ex 193, 6-((5-(4-Methylthiophen-2-yl)-3H-[1,2,3]triazolo[4,5-b]pyridin-3-yl)methyl)quinoline] | 153 to 156 |  | < 25 |  |  | 50 to 75
19 | Cc1ccc(-c2ccc3nnn(Cc4ccc5ncccc5c4)c3n2)s1 [Ex 194, 6-((5-(5-Methylthiophen-2-yl)-3H-[1,2,3]triazolo[4,5-b]pyridin-3-yl)methyl)quinoline] | 154 to 156 |  | < 25 |  |  | 50 to 75
20 | c1cnc2ccc(Cn3nnc4ccc(-c5ccc(N6CCCCC6)nc5)nc43)cc2c1 [Ex 196, 6-((5-(6-(Piperidin-1-yl)pyridin-3-yl)-3H-[1,2,3]triazolo[4,5-b]pyridin-3-yl)methyl)quinoline] | 133 to 135 |  | < 25 |  |  | < 25

Second part, led by results:

Row | melting point [°C] | GI50 [1] [nM] | Structure (SMILES) | inhibition at 0.1 µM ([1]; 0.1 μM) [%] | Inhibition (% Inhibition of MKN-45 proliferation) ([1]; MKN-45 proliferation, 0.1 μM) | % inhibition @ 1 uM ([1]; MKN-45 proliferation, 1 μM) | inhibition at 1 µM ([1]; 1 μM) [%]
21 | 227 to 230 |  | CNC(=O)c1ccc(-c2ccc3nnn(Cc4ccc5ncccc5c4)c3n2)cc1Cl [Ex 109, 2-Chloro-N-methyl-4-(3-(quinolin-6-ylmethyl)-3H-[1,2,3]triazolo[4,5-b]pyridin-5-yl)benzamide] | 75 to 100 |  |  | 
22 | 145 to 147 |  | CONC(=O)c1ccc(-c2ccc3nnn(Cc4ccc5ncccc5c4)c3n2)cc1F.Cl [Ex 110, 2-Fluoro-N-methoxy-4-(3-(quinolin-6-ylmethyl)-3H-[1,2,3]triazolo[4,5-b]pyridin-5-yl)benzamide hydrochloride] |  | B (B = ≥50-<75%) | B (B = ≥50-<75%) | 
23 | 204 to 206 |  | O=C(Nc1nccs1)c1ccc(-c2ccc3nnn(Cc4ccc5ncccc5c4)c3n2)cc1F [Ex 111, 2-Fluoro-4-(3-(quinolin-6-ylmethyl)-3H-[1,2,3]triazolo[4,5-b]pyridin-5-yl)-N-(thiazol-2-yl)benzamide] | < 25 |  |  | 75 to 100
24 | 151 to 153 |  | O=C(NCCC(=O)N1CCCC1)c1ccc(-c2ccc3nnn(Cc4ccc5ncccc5c4)c3n2)cc1F [Ex 114, 2-Fluoro-N-(3-oxo-3-(pyrrolidin-1-yl)propyl)-4-(3-(quinolin-6-ylmethyl)-3H-[1,2,3]triazolo[4,5-b]pyridin-5-yl)benzamide] | 50 to 75 |  |  | 50 to 75
25 | 180 to 182 |  | O=C(NO)c1ccc(-c2ccc3nnn(Cc4ccc5ncccc5c4)c3n2)cc1F [Ex 115, 2-Fluoro-N-hydroxy-4-(3-(quinolin-6-ylmethyl)-3H-[1,2,3]triazolo[4,5-b]pyridin-5-yl)benzamide] | < 25 |  |  | 75 to 100
26 | 109 to 111 |  | O=C(NCCC(=O)N1CCCCC1)c1ccc(-c2ccc3nnn(Cc4ccc5ncccc5c4)c3n2)cc1F [Ex 117, 2-Fluoro-N-(3-oxo-3-(piperidin-1-yl)propyl)-4-(3-(quinolin-6-ylmethyl)-3H-[1,2,3]triazolo[4,5-b]pyridin-5-yl)benzamide] | 50 to 75 |  |  | 75 to 100
27 | 212 to 215 |  | O=C(NCCC(=O)N1CCOCC1)c1ccc(-c2ccc3nnn(Cc4ccc5ncccc5c4)c3n2)cc1F [Ex 120, 2-Fluoro-N-(3-morpholino-3-oxopropyl)-4-(3-(quinolin-6-ylmethyl)-3H-[1,2,3]triazolo[4,5-b]pyridin-5-yl)benzamide] | 75 to 100 |  |  | 25 to 50
28 | 135 to 137 |  | O=C(NCCCN1CCCCC1)c1ccc(-c2ccc3nnn(Cc4ccc5ncccc5c4)c3n2)cc1F [Ex 124, 2-Fluoro-N-(3-(piperidin-1-yl)propyl)-4-(3-(quinolin-6-ylmethyl)-3H-[1,2,3]triazolo[4,5-b]pyridin-5-yl)benzamide] | 75 to 100 |  |  | 50 to 75
29 | 179 to 181 |  | c1cnc2ccc(Cn3nnc4ccc(-c5ccc6c(c5)OCO6)nc43)cc2c1 [Ex 184, 6-((5-(Benzo[d][1,3]dioxol-5-yl)-3H-[1,2,3]triazolo[4,5-b]pyridin-3-yl)methyl)quinoline] | < 25 |  |  | < 25
30 | 131 to 133 |  | c1cnc2ccc(Cn3nnc4ccc(-c5ccc6c(c5)CCO6)nc43)cc2c1 [Ex 185, 6-((5-(2,3-Dihydrobenzofuran-5-yl)-3H-[1,2,3]triazolo[4,5-b]pyridin-3-yl)methyl) quinoline] | < 25 |  |  | < 25
31 | 183 to 185 |  | c1cnc2ccc(Cn3nnc4ccc(-c5ccc(N6CCOCC6)nc5)nc43)cc2c1 [Ex 195, 4-(5-(3-(Quinolin-6-ylmethyl)-3H-[1,2,3]triazolo[4,5-b]pyridin-5-yl)pyridin-2-yl)morpholine] | 25 to 50 |  |  | 50 to 75
